“And” between values parts separate entries of the source, which are not always exact repeats. Equal values may be shown once. Where a name gives a salt, the structure may show the parent alone.
Legend:
IL-12 signaling [1] = assay: Modified acute assay; type: cell-based; conditions: T-cell, 72 h, purified splenic T cells, anti-CD3 or lectin stimulation, Interferon-γ by ELISA
Protocol: The compounds of Examples 3-10 were tested in a modified acute assay which is used to screen for compounds that perturb IL-12 signaling. The assay measures the biological effects of compounds on IL-12 signaling during the differentiation of T1 responses rather than the outcome of differentiation, as measured using a T1 Differentiation Assay. Purified splenic T cells were stimulated either by crosslinking their T cell receptors with immobilized anti-CD3 antibody or by binding with a soluble lectin (e.g. Conconavalin A). The cells were incubated for 72 hours after which time supernatants are collected and relative Interferon-γ amounts determined by ELISA. The Modified Acute Assay measured a directed IL-12 response derived from a population of cells in a variety of activation states and can be thought of as a more stochastic response.

IL-12 signaling [2] = assay: IL-12 dependent in vitro T-helper cell (Th1) differentiation assay; type: cell-based; conditions: inhibition of IL-12 induced Th1 differentiation as defined by IFN-γ production upon secondary stimulation with anti-CD3 alone, splenic T cells, seven days culture
Protocol: This example illustrates the inventive compounds' ability to suppress Th1 differentiation in vitro by blocking IL-12 signaling. The compounds from Examples 1, 2, 6, and 7 were tested in an IL-12 dependent in vitro T-helper cell differentiation assay as described in LeGross et al., J. Exp. Med., 172:921-929 (1990). Recombinant IL-12 was used to induce Th1 differentiation. Splenic T cells were purified utilizing the antibodies RA3-3A1/6.1 (anti-B220), J11d and MAR18.5 (anti-rat kappa chain) to deplete the B cells by magnetic bead separation, as described in Coon et al, J. Immuno., 163:6567-6574 (1989). Splenic T cells were stimulated at 5×10^5/ml with insoluble anti-CD3 alone (145-2C11, Pharmingen, San Diego, Calif.), or anti-CD3 and 5 U/ml IL-12, with and without each inventive compound. After seven days, equal numbers of viable cells were restimulated for 24 hours with anti-CD3 without the inventive compounds, and the supernatants were collected and assayed for IFN—γ production. IFN-γ and IL-4 levels were measured by ELISA test specific for IFN-γ and IL-4.
Th1 differentiation was induced by culturing anti-CD3 stimulated T cells in the presence of exogenous IL-12. […] It was observed that the presence of the tested compounds during T cell activation inhibited Th1 differentiation, which had been enhanced by the addition of exogenous IL-12. The values in the “IC50 μM” column were determined by measuring the inhibition of IL-12 induced Th1 differentiation as defined by IFN-γ production upon secondary stimulation with anti-CD3 alone. None of the compounds affected the viability or recovery of T cells after one week of culture.

Compound	IC50 (IL-12 signaling [1]) [µM]	IC50 (IL-12 signaling [2]; T-cell, 168 h) [µM]	IC50 (IL-12 signaling [2]; Acetic Acid Salt) [µM]	IC50 (IL-12 signaling [2])
Cc1cc(C)c2c(=O)n(CCCC[C@@H](C)O)c(=O)n(C)c2n1 [Example 8, (R)-3-(5-Hydroxyhexyl)-1,5,7-trimethylpyrido[2,3-d]pyrimidine-2,4(1H,3H)-dione]	33	–	–	–
Cc1cc(N(C)C)nc2c1c(=O)n(CCCC[C@@H](C)O)c(=O)n2C [Example 10, (R)-1,5-Dimethyl-7-(N,N-dimethylamino)-3-(5-hydroxyhexyl)-2,4-pyrido[2,3-d]pyrimidine-2,4(1H,3H)-dione]	6	–	–	–
CNc1cc(C)nc2c1c(=O)n(CCCC[C@@H](C)O)c(=O)n2C [Example 3, (R)-1,7-Dimethyl-3-(5-hydroxyhexyl)-5-(N-methylamino)pyrido[2,3-d]pyrimidine-2,4(1H,3H)-dione]	< 10	–	–	–
Cc1cc(N(C)C)c2c(=O)n(CCCC[C@@H](C)N(C)C)c(=O)n(C)c2n1 [Example 7, (R)-1,7-Dimethyl-5-(N,N-dimethylamino)-3-(5-(N,N-dimethylamino)hexyl)pyrido[2,3-d]pyrimidine-2,4(1H,3H)dione]	26	> 40	–	–
Cc1cc(=O)c2c(=O)n(CCCC[C@@H](C)O)c(=O)n(C)c2n1Cc1ccccc1 [Example 5, (R)-8-Benzyl-1,7-dimethyl-3-(5-hydroxyhexyl)pyrido[2,3-d]pyrimidine-2,4,5(1H,3H,8H)-trione]	8	–	–	–

The next lines start with the values.

IC50 (IL-12 signaling [1]) [µM]	IC50 (IL-12 signaling [2]; T-cell, 168 h) [µM]	IC50 (IL-12 signaling [2]; Acetic Acid Salt) [µM]	IC50 (IL-12 signaling [2])	Compound
> 40	–	–	–	Cc1cc(=O)[nH]c2c1c(=O)n(CCCC[C@@H](C)O)c(=O)n2C [Example 9, (R)-1,5-Dimethyl 3-(5-hydroxyhexyl)pyrido[2,3-d]pyrimidine-2,4,7(1H,3H,8H)-trione]
9	14	16	–	Cc1cc(=O)c2c(=O)n(CCCC[C@@H](C)N(C)C)c(=O)n(C)c2[nH]1 [Example 6, (R)-1,7-Dimethyl-3-(5-(N,N-dimethylamino)hexyl)pyrido[2,3-d]pyrimidine-2,4,5(1H,3H,8H)-trione, Acetic Acid Salt]
–	7	–	–	CO[C@H](C)CCCCn1c(=O)c2c(=O)cc(C)[nH]c2n(C)c1=O [Example 2, (R)-1,7-Dimethyl-3-(5-methoxyhexyl)pyrido[2,3-d]pyrimidine-2,4,5(1H,3H,8H)-trione]
–	19	–	24 µM and 28 µM	Cc1cc(=O)c2c(=O)n(CCCC[C@@H](C)O)c(=O)n(C)c2[nH]1 [Example 1, (R)-1,7-Dimethyl-3-(5-hydroxyhexyl)pyrido[2,3-d]pyrimidine-2,4,5(1H,3H,8H)-trione]
